Source: PubChem BioAssay (NCI)
“And” between values parts separate entries of the source, which are not always exact repeats. Identical values can stand only once.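 1) Cells in 96-well plates. 2) Compound, 48 h, 5 concentrations. 3) Linear interpolation between surrounding doses. 4) Unreached endpoint = highest concentration. GI50: concentration for 50% inhibition of growth. Definition used: TGI = concentration required for complete inhibition of growth.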 *1 amine or outer side, *2 acyl side, *3 side chain or, on linkers, in order; H or OH if unused. Where a SMILES comes first, the peptide text is derived from it. CO = O=C([*:1])[*:2]

How the values were obtained:
Assay in all cases: NCI-60 cell line screen, 48 h
[1] = tested on: 786-0 renal
[2] = tested on: A549 NSCLC
[3] = tested on: ACHN renal
[4] = tested on: HCT-116 colon
[5] = tested on: M14 melanoma
[6] = tested on: NCI-H522 lung
[7] = tested on: PC-3 prostate
[8] = tested on: TK-10 renal
[9] = tested on: UACC-62 melanoma
[10] = tested on: CAKI-1 renal

Row | SMILES | GI50 [1] | TGI [1] | GI50 [2] | TGI [2] | GI50 [3] | TGI [3] | GI50 [4] | TGI [4] | GI50 [5] | TGI [5] | GI50 [6] | TGI [6] | GI50 [7] | TGI [7] | GI50 [8] | TGI [8] | GI50 [9] | TGI [9] | TGI [10] | GI50 [10]
1 | Nc1c(C(=O)Nc2cccc3ccccc23)sc2nc3c(cc12)CCCCC3 | 0.443 µM | > 50 µM | 1.9 µM | > 50 µM | 2.59 µM | > 50 µM | 0.407 µM | > 50 µM | 0.339 µM | > 50 µM | 0.724 µM | 4.7 µM | 1.07 µM | > 50 µM | 43.4 µM | > 50 µM | 0.219 µM | > 50 µM | – | –
2 | Nc1ccn(C2OC(COP(=O)(O)O)C(O)C2O)c(=O)n1 (stereo not given) | – | > 100 µM | – | > 100 µM | – | > 41.4 µM | – | > 100 µM | – | > 44.9 µM | – | > 100 µM | – | > 100 µM | – | > 100 µM | – | > 71.3 µM | > 100 µM | –
3 | O=C(CCc1ccc(O)c(O)c1)c1ccc(O)c(O)c1O | – | > 100 µM | – | > 100 µM | – | 28.4 µM | – | > 100 µM | – | 41.7 µM | – | 41.1 µM | – | > 100 µM | – | 47.3 µM | – | > 100 µM | 37.9 µM | –
4 | CC(=O)O[C@H]1C(=O)[C@@]2(C)[C@H]([C@H](OC(=O)c3ccccc3)[C@]3(O)C[C@H](OC(=O)[C@H](OC(=O)CCC(=O)OC4CCC(S/N=C(N)/N=C(\N)N(C)C)CC4)[C@@H](NC(=O)c4ccccc4)c4ccccc4)C(C)=C1C3(C)C)[C@]1(OC(C)=O)CO[C@@H]1C[C@@H]2O (stereo not given in full) | 0.115 µM | > 50 µM | 0.0084 µM | > 50 µM | 0.11 µM | > 50 µM | < 0.005 µM | > 50 µM | – | – | 0.00553 µM | 0.0373 µM | 0.0155 µM | > 50 µM | 0.0205 µM | 1.65 µM | < 0.0155 µM | > 25.5 µM | > 50 µM | 1.27 µM
5 | N#Cc1c(N)nc(N2CCOCC2)c(C#N)c1-c1cccc(O)c1 | > 100 µM | > 100 µM | > 100 µM | > 100 µM | – | – | > 100 µM | > 100 µM | > 100 µM | > 100 µM | – | – | 46.9 µM | > 100 µM | – | – | 40.8 µM | > 100 µM | > 100 µM | > 100 µM
6 | Cc1cc(S(=O)(=O)/N=C(\N)n2nc(C)c(C)c2C)c(SCc2ccccc2)cc1Cl | > 100 µM | > 100 µM | 14 µM | > 100 µM | > 100 µM | > 100 µM | 38.5 µM | > 100 µM | > 100 µM | > 100 µM | > 100 µM | > 100 µM | 6.04 µM | > 100 µM | > 100 µM | > 100 µM | > 100 µM | > 100 µM | – | –
7 | CC(C)C(NC(=O)C(CCCN=C(N)N)NC(=O)NC(Cc1ccccc1)C(=O)O)C(=O)NC(C=O)CCCN=C(N)N (stereo not drawn) ({Phe-CO}-Arg-Val-Arg-aldehyde; configuration not given here) | > 5 µM | > 5 µM | > 5 µM | > 5 µM | > 5 µM | > 5 µM | > 5 µM | > 5 µM | > 5 µM | > 5 µM | > 5 µM | > 5 µM | > 5 µM | > 5 µM | > 5 µM | > 5 µM | > 5 µM | > 5 µM | > 5 µM | > 5 µM
8 | O=C(Nc1cccc(-c2nc3ccccc3[nH]2)c1)c1cccc(NC(=O)c2ccco2)c1 | 1.65 µM | 3.05 µM | 1.88 µM | 3.95 µM | 1.68 µM | 3.17 µM | 1.74 µM | 3.11 µM | – | – | 2.5 µM | 6.41 µM | 2.25 µM | 5.48 µM | 2.88 µM | 6.66 µM | 1.79 µM | 3.5 µM | 7.21 µM | 2.53 µM
9 | Cc1cccc(Oc2ccc(Nc3ncnc4ccc(NC(=O)CN5CCN(C)CC5)cc34)cc2Cl)c1 | 1.59 µM | 2.99 µM | – | – | 0.655 µM | 1.96 µM | – | – | 1.72 µM | 3.38 µM | – | – | 1.78 µM | 3.52 µM | 0.701 µM | 2.24 µM | 1.84 µM | 3.56 µM | 2.66 µM | 1.19 µM
10 | Cc1cc2c(cc1C)[n+](=O)c(C(=O)c1cccs1)c(C(F)(F)F)n2[O-] | 23 µM and 6.76 µM | 50 µM and 24.5 µM | 3.27 µM and 5.68 µM | 50 µM and 21.5 µM | 7.17 µM and 2.75 µM | 14.9 µM and 17.4 µM | 5.2 µM | 26.7 µM | 14.6 µM and 13.5 µM | 50 µM and > 100 µM | 2.29 µM and 2.17 µM | 15.5 µM and 8.26 µM | 0.827 µM and 7.09 µM | – | – | – | 3.02 µM and 6.56 µM | 12.8 µM and 21.7 µM | 9.59 µM and 13.2 µM | 2.32 µM and 2.48 µM
11 | C=C1C(=O)O[C@H]2[C@H]1CC/C(COC(=O)NCCc1c[nH]c3ccccc13)=C\CC[C@@]1(C)O[C@@H]21 | 1.17 µM | 2.81 µM | 10.7 µM | 25.4 µM | 1.37 µM | 2.71 µM | 1.01 µM | 2.39 µM | 1.44 µM | 3.65 µM | 1.26 µM | 2.84 µM | 3.05 µM | 13 µM | 1.92 µM | 3.55 µM | 1.47 µM | 3.2 µM | – | –
12 | N#Cc1c(C(N)=O)ncn1Cc1ccccc1 | – | > 100 µM | – | > 100 µM | – | > 100 µM | – | > 100 µM | – | > 100 µM | – | > 100 µM | – | – | – | > 100 µM | – | > 100 µM | > 100 µM | –
13 | O=C(CC1(O)C(=O)Nc2ccccc21)c1ccc(O)cc1O (stereo not given) | – | > 100 µM | – | > 100 µM | – | > 100 µM | – | > 100 µM | – | > 100 µM | – | > 100 µM | – | – | – | > 100 µM | – | > 100 µM | > 100 µM | –
14 | Cc1ccc(NC(=O)/C(=N/NC(=O)CC#N)C2C(=O)N(c3ccccc3)N=C2N)cc1C (stereo not given) | – | > 100 µM | – | > 100 µM | – | > 100 µM | – | > 100 µM | – | > 100 µM | – | > 100 µM | – | – | – | > 100 µM | – | > 100 µM | > 100 µM | –
15 | CO/C=C/c1cc2c(cc1C(OC)OC)OCO2 | – | > 100 µM | – | > 100 µM | – | > 100 µM | – | > 100 µM | – | 87.9 µM | – | > 100 µM | – | – | – | > 100 µM | – | 69.1 µM | > 100 µM | –
16 | O=C(O/N=C1/CCC/C1=C\c1ccccc1)c1ccccc1 | – | > 100 µM | – | > 100 µM | – | > 100 µM | – | > 100 µM | – | > 100 µM | – | > 100 µM | – | – | – | > 100 µM | – | > 100 µM | > 100 µM | –
